In article PMC5503534, “Stable aneuploid tumors cells are more sensitive to TTK inhibition than chromosomally unstable cell lines” (Oncotarget, 2017):
Like-named read-outs stand apart in the source and are kept apart here.

Columns and labels:
[1] = tested on: post-tetraploid HPT2 cells; test: Cell proliferation assay, post-tetraploid HPT2; format: cell-based, human; details: HPT2, five days; for Efficacy (%): average of three experiments; for IC50: geometric average of three experiments
Procedure: (§1) Cancer cell lines and hTERT-RPE1 retinal pigment epithelial cells were purchased from the American Type Culture Collection (ATCC) (Manassas, VA, U.S.A.) from 2011 to 2014 [41] and cultured in ATCC-recommended media. All experiments were carried out within nine passages of the original vials from ATCC who authenticated the cancer cell lines by short tandem repeat analysis. We verified the mutant status of seven frequently mutated cancer genes (i.e., BRAF, CDKN2A, CTNNB1, EGFR, KRAS, PIK3CA and TP53) by full exome or targeted sequencing. Sequencing results were compared to COSMIC version 75 of the Genomics of Drug Sensitivity in Cancer data base and provided additional authentication of the identity of the cell lines. The isolation and characterization of post-tetraploid clones from HCT 116 has been described previously. The mutation status of the CDKN2A, CTNNB1, KRAS and PIK3CA genes were confirmed by sequence analysis in both the HCT 116 parental cell line and post-tetraploid clones. All experiments were carried out within nine passages of the original cell stocks that were transferred from the Max Planck Institute of Biochemistry (Martinsried, Germany) to Netherlands Translational Research Center.
(§2) Cell proliferation assays were carried out as described using ATPlite 1step™ (Perkin Elmer, Groningen, The Netherlands). Exposure time was 72 or 120 hours as indicated in the Legends to the Figures. Percentage growth was calculated, relative to the growth of unexposed cells, and relative IC50s were fitted using a four-parameter logistics curve (XLfit 5.3, IDBS). For Figure 4A and 7 dose response curves were redrawn in Prism. To compare the inhibitory potency of compounds in proliferation assays with HCT 116 parental and tetraploid clones, pIC50 (−^10logIC50) values were compared in three independent experiments. A two-tailed Student's t-test was performed to determine whether differences in sensitivity (ΔpIC50) were statistically significant. Caspase 3/7 activity of cancer cells was measured using Caspase-Glo 3/7 Assay kit (cat no. G8093, Promega, Madison USA). Viability of T-ALL cell samples was determined using ATPlite and exposure of 72 hours as described previously.

[2] = tested on: post-tetraploid HPT4 cells; test: Cell proliferation assay, post-tetraploid HPT4; format: cell-based, human; details: HPT4, five days; for Efficacy (%): average of three experiments; for IC50: geometric average of three experiments
Procedure: as §1, §2

[3] = tested on: HCT 116 colon carcinoma cell line; test: Cell proliferation assay (ATPlite), HCT 116; format: cell-based, human; details: for Eff. (%): HCT 116, five days, maximum inhibitory effect, average of three experiments; for IC50: HCT 116 near-diploid, five days, geometric average of three experiments (Suppl. Table 2A)
Procedure: as §2

[4] = tested on: HCT 116 vs HPT1, -2 and -4; test: Drug sensitivity analysis, HCT116 diploid versus tetraploids; format: cell-based, human; details: for Δeff. (%) / Phenotype (potency): HCT 116 vs HPT1, -2 and -4; for Phenotype (efficacy): HCT 116 vs HPT1, -2 and -4, based on % effect; for Phenotype (potency): 'resistant' indicates that tetraploids are resistant; for ΔpIC50: average log shift in sensitivity between parental and tetraploids
Procedure: as §2

[5] = tested on: post-tetraploid HPT1 cells; test: Cell proliferation assay, post-tetraploid HPT1; format: cell-based, human; details: HPT1, five days; for Efficacy (%): average of three experiments; for IC50: geometric average of three experiments
Procedure: as §1, §2

[6] = tested on: HCT 116 colon carcinoma cell line; details: three day cell proliferation assay; cited from earlier work
[7] = tested on: OVCAR-3 ovary adenocarcinoma cell line; details: three day cell proliferation assay; cited from earlier work
full-length Aurora B = biological target: T1, full-length Aurora B (Homo sapiens, UniProt Q96GD4); test: Surface plasmon resonance binding kinetics, Aurora B; details: SPR, geometric average
T1 construct: to the kinase domain of TTK and full-length Aurora B; purchased Carna Biosciences, Inc., Kobe, Japan; host or cells: Sf9 insect cells
From the text: Originally, the compound was identified in a phenotypic screen for molecules that can induce stem-cell like phenotypes. Later this property was attributed to its ability to inhibit the mitotic kinase Aurora B [39].

[8] = tested on: A-172 glioblastoma cell line; details: three day cell proliferation assay; cited from earlier work
[9] = tested on: MG-63 osteosarcoma cell line; details: three day cell proliferation assay; cited from earlier work
[10] = tested on: 66 cancer cell lines (44 cell lines); parameters: method as in earlier work; details: 3 days; geometric average in 44 cell lines; cited from earlier work
[11] = tested on: DoTc2 4510 cervix carcinoma cell line; details: three day cell proliferation assay; cited from earlier work
[12] = tested on: LoVo colorectal adenocarcinoma cell line; details: three day cell proliferation assay; cited from earlier work
[13] = tested on: pediatric T-ALL patient cell samples; test: Viability assays with T-ALL patient samples; format: cell-based, human; details: Homo sapiens, 72 h
Procedure: Written informed consent was obtained from the parents or legal guardians of each T-ALL patient to use excess diagnostic material for research purposes. The study was performed in accordance with the Institutional Review Board of the Erasmus Medical Center Rotterdam (The Netherlands) and in accordance with the Declaration of Helsinki. Leukemic cells were harvested from blood or bone marrow samples and were enriched to ≥ 90% purity.
as §2

[14] = mouse, in vivo; cited from earlier work

T1 sequence (Q96GD4 whole entry, the tested form may be a part): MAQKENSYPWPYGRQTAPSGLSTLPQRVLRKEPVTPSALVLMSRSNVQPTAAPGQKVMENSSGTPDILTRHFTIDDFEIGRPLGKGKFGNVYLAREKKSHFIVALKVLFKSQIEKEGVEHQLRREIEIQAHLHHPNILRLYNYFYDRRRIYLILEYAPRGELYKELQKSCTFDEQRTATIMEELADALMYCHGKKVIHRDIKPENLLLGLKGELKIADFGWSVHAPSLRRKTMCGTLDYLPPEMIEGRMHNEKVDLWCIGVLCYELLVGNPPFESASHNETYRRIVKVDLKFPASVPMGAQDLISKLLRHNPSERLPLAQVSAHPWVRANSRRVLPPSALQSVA

Row | IC50 ([3]; Homo sapiens, 120 h) [nM] | SMILES | Efficacy (%) [1] [%] | IC50 ([1]; Homo sapiens, 120 h) [nM] | Efficacy (%) [2] [%] | IC50 ([2]; Homo sapiens, 120 h) [nM] | Eff. (%) [3] [%] | Δeff. (%) [4] [%] | Phenotype (efficacy) [4] | Phenotype (potency) [4] | ΔpIC50 [4] | Efficacy (%) [5] [%] | IC50 ([5]; Homo sapiens, 120 h) [nM] | IC50 [6] [nM] | IC50 [7] [nM] | IC50 [8] [nM] | IC50 [9] [nM] | IC50 [11] [nM] | IC50 [12] [nM] | further results
1 | 14 | CCn1cc(-c2ccnc3[nH]c(-c4cccc(CN(C)C)c4)cc23)c(-c2ccc(NC(=O)N(C)C)cc2)n1 [GSK-1070916] | 100 | 1700 | 100 | 1680 | 61 | 16 | sensitive | resistant | 1.41 | 32 | 16 | – | – | – | – | – | – | –
2 | 715 | O=C(O)c1ccc(Nc2ncc3c(n2)-c2ccc(Cl)cc2C(c2c(F)cccc2F)=NC3)cc1 [MLN-8054] | 52 | 1550 | 56 | 1200 | 85 | −28 | resistant | resistant | 0.28 | 61 | 1330 | – | – | – | – | – | – | –
3 | – | Cc1cc(N2CCOCC2)ccc1Nc1nc(NC2CCCCC2)c2[nH]cnc2n1 [MPI-047605] | 46 | – | 51 | – | 72 | −22 | resistant | sensitive | −0.07 | 52 | – | 234 | 7330 | 198 | 899 | 8390 | 220 | IC50 [1]: 199 nM; IC50 [2]: 191 nM; IC50 [3]: 233 nM; ka (full-length Aurora B): 9550 M⁻¹ s⁻¹; kd (full-length Aurora B): 0.291 s⁻¹; IC50 [10]: 448 nM; IC50 [5]: 208 nM
4 | – | N[C@@H](CSC(c1ccccc1)(c1ccccc1)c1ccccc1)C(=O)O [STLC, S-trityl-L-cysteine] | 93 | 1340 | 95 | 1400 | 99 | −6 | resistant | resistant | 0.34 | 90 | 2040 | – | – | – | – | – | – | –
5 | – | CC(C)C[C@H](NC(=O)[C@H](Cc1ccccc1)NC(=O)c1cnccn1)B(O)O [bortezomib] | – | – | – | – | – | – | – | – | – | – | – | – | – | – | – | – | – | IC50 ([13]; all ten T-ALL patient samples, three days, read-out: IC50): < 10 nM; IC50 ([13]; patient sample 491, three-day assay, read-out: IC50): 3 nM; IC50 ([13]; patient sample 1033, three-day assay, read-out: IC50): 3 nM; IC50 ([13]; patient sample 1816, three-day assay, read-out: IC50): 2 nM; IC50 ([13]; patient sample 2323, three-day assay, read-out: IC50): 3 nM; IC50 ([13]; patient sample 3594, three-day assay, read-out: IC50): 4 nM; IC50 ([13]; patient sample 3852, three-day assay, read-out: IC50): 4 nM; IC50 ([13]; patient sample 4023, three-day assay, read-out: IC50): 3 nM; IC50 ([13]; patient sample 4126, three-day assay, read-out: IC50): 3 nM; IC50 ([13]; patient sample 4992, three-day assay, read-out: IC50): 3 nM; IC50 ([13]; patient sample 10110, three-day assay, read-out: IC50): 3 nM
6 | – | N.N.[Cl][Pt][Cl] [cisplatin] | – | – | – | – | – | – | – | – | – | – | – | 6210 | 11300 | 15900 | 4510 | 7400 | 6730 | –
7 | – | CN(C)/N=N/c1[nH]cnc1C(N)=O [dacarbazine] | – | – | – | – | – | – | – | – | – | – | – | 18600 | 13900 | 31600 | 16000 | 3090 | 5290 | –
8 | – | COc1cccc2c1C(=O)c1c(O)c3c(c(O)c1C2=O)C[C@@](O)(C(C)=O)C[C@@H]3O[C@H]1C[C@H](N)[C@H](O)[C@H](C)O1 [daunorubicin] | – | – | – | – | – | – | – | – | – | – | – | – | – | – | – | – | – | IC50 ([13]; all ten T-ALL patient samples, three days): < 100 nM; IC50 ([13]; patient sample 491, three-day assay): 80 nM; IC50 ([13]; patient sample 1033, three-day assay): 43 nM; IC50 ([13]; patient sample 1816, three-day assay): 38 nM; IC50 ([13]; patient sample 2323, three-day assay): 80 nM; IC50 ([13]; patient sample 3594, three-day assay): 43 nM; IC50 ([13]; patient sample 3852, three-day assay): 61 nM; IC50 ([13]; patient sample 4023, three-day assay): 57 nM; IC50 ([13]; patient sample 4126, three-day assay): 71 nM; IC50 ([13]; patient sample 4992, three-day assay): 41 nM; IC50 ([13]; patient sample 10110, three-day assay): 42 nM
9 | – | CC(=O)O[C@@]12CO[C@@H]1C[C@H](O)[C@@]1(C)C(=O)[C@H](O)C3=C(C)[C@@H](OC(=O)[C@H](O)[C@@H](NC(=O)OC(C)(C)C)c4ccccc4)C[C@@](O)([C@@H](OC(=O)c4ccccc4)[C@H]21)C3(C)C [docetaxel] | – | – | – | – | – | – | – | – | – | – | – | 2 | 4 | 3 | 1 | 3 | 8 | effect on bone marrow or blood cell count (hematological toxicity) [14]: hematological toxicity was seen
10 | 31 | COc1cccc2c1C(=O)c1c(O)c3c(c(O)c1C2=O)C[C@@](O)(C(=O)CO)C[C@@H]3O[C@H]1C[C@H](N)[C@H](O)[C@H](C)O1 [doxorubicin] | 100 | 130 | 100 | 83 | 97 | 3 | sensitive | resistant | 0.46 | 99 | 69 | – | – | – | – | – | – | –
11 | – | CC(=O)O[C@H]1C(=O)[C@@]2(C)[C@H]([C@H](OC(=O)c3ccccc3)[C@]3(O)C[C@H](OC(=O)[C@H](O)[C@@H](NC(=O)c4ccccc4)c4ccccc4)C(C)=C1C3(C)C)[C@]1(OC(C)=O)CO[C@@H]1C[C@@H]2O [paclitaxel] | – | – | – | – | – | – | – | – | – | – | – | 5 | 26 | 17 | 6 | 10 | 23 | –
12 | 25 | CC[C@@H]1C(=O)N(C)c2cnc(Nc3ccc(C(=O)N[C@H]4CC[C@H](N5CCN(CC6CC6)CC5)CC4)cc3OC)nc2N1C(C)C [volasertib] | 65 | 45 | 84 | 49 | 98 | −21 | resistant | resistant | 0.19 | 82 | 26 | – | – | – | – | – | – | –
